Test results taken from the supplement of paper PMC10290057.
Structures can show the parent of a compound that is named as a salt.

Legend:
HCT116 [1] = assay: AC50 cell viability (CellTiter-Glo); higher = less potent; settings: 48 h
HCT116 [2] = assay: efficacy (fitted maximal change in viability relative to DMSO control); higher = less cytotoxic (negative = loss of viability); settings: 48 h
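Wherever AC50 cell viability (CellTiter-Glo) is given: HCT116 colorectal carcinoma cells screened at five concentrations per compound, luminescent viability scaled between DMSO wells and empty wells on each plate, curves fitted per compound.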
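Wherever efficacy (fitted maximal change in viability relative to DMSO control) is given: Luminescence-based viability readout, five doses per compound, normalized against on-plate DMSO and empty-well controls, followed by dose-response curve fitting for every drug.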

Row | SMILES | AC50 cell viability (HCT116 [1]) [µM] | efficacy (HCT116 [2]) [%]
1 | O=C(CCCCCCNC(=O)c1cnc(N(c2ccccc2)c2ccccc2Cl)nc1)NO [ACY-241] | 5.9 | -86.2
2 | Cc1c(NC(=O)c2cc(C(N)=O)nc3cc(F)ccc23)c(C(F)(F)F)nn1Cc1ccc(C#N)cc1 [BAY-876] | 4.68 | -89.3
3 | Cc1cc(OCc2nnc(SC3CCCC3)n2-c2cccnc2)ccc1-c1ccc([S+](C)(=O)[O-])cc1 [NMS-873] | 1.48 | -104
4 | Cc1nc(Nc2n[nH]c3c2CN(C(=O)N[C@H](CN(C)C)c2ccccc2)C3(C)C)c2sccc2n1 | 0.0186 | -64.7
5 | CN1CCN(C(=O)c2ccc3cc(CCNc4ncnc5ccc(C#N)cc45)ccc3c2)CC1 [Senexin-B] | 13.2 | -72.9
6 | CCc1c(O)cc(O)c(C(=O)c2ccc(OCCN3CCOCC3)c(OC)c2)c1CC(=O)N(CCOC)CCOC [KW-2478] | 0.833 | -53.2
7 | Cc1cn(CCN2CCN(c3ccccc3-c3cc(C#N)cc(C(=O)NCCCN4CCCC4)c3)CC2)c2ccccc12 [LLY-507] | 26.3 | -130
8 | ClC1=C[NH]N=C1C\2NC(=N\C3=C2C(=O)CCC3)/NC4=NC5=CC=CC=C5O4 (centres undefined) | 18.6 | -63.3
9 | Oc1cccc(-c2nc(N3CCOCC3)c3oc4ncccc4c3n2)c1 [PI-103] | 1.32 | -57.3
10 | Cn1cc(-c2ccncc2)c(-c2ccc(OCc3ccc4ccccc4n3)cc2)n1 [MP-10] | 18.6 | -72.4
11 | COCCOC(=O)N1CCN([S+](=O)([O-])c2cc(F)c(Oc3ccc(Cl)cc3)c(F)c2)C(C(=O)NO)C1 (centres undefined) [XL-784] | 10.5 | -92.6
12 | COc1cc2c(Oc3ccc4[nH]c(C)cc4c3F)ncnc2cc1OCCCN1CCCC1 [Cediranib] | 14.8 | -111
13 | O=C(Nc1ccnc(NC(=O)C2CC2)c1)c1c(Cl)cccc1Cl [GDC-046] | 2.35 | -79.8
14 | COc1cc2ncn(-c3cc(OCc4ccccc4C(F)(F)F)c(C(N)=O)s3)c2cc1OC | 0.934 | -78.4
15 | ClC1=CC=C(CCCOC/2=N/NC(=O)C(=C2NCC3=CN=CC=C3)/Br)C=C1 [Parogrelil] | 18.6 | -86.2
16 | CC(C)(C)NC(=O)Nc1cccc(Nc2ncc(F)c(NC(C)(C)CO)n2)c1 [Bayer-18] | 18.6 | -54.8
17 | Nc1cc(C(F)(F)F)c(-c2cc(N3CCOCC3)nc(N3CCOCC3)n2)cn1 [BKM-120] | 1.66 | -71.8
18 | COCCn1c2c([n+](Cc3cnccn3)c1C)C(=O)c1ccccc1C2=O [Sepantronium bromide] | 0.00833 | -93.8
19 | CC1(C)C(=O)N(c2ccc(C#N)c(C(F)(F)F)c2)C(=S)N1Cc1ccc(-c2c[nH]nn2)cc1 [BG-15a] | 20.9 | -68.8

Row | SMILES | AC50 cell viability (HCT116 [1]) [µM] | efficacy (HCT116 [2]) [%]
20 | CC(C)C[C@H](NC(=O)CNC(=O)c1cc(Cl)ccc1Cl)B1OC(=O)CC(CC(=O)O)(C(=O)O)O1 (some centres undefined) [Ixazomib citrate] | 0.148 | -93.4
21 | O=C(/C=C/c1ccc2ccc(C(F)(F)F)cc2n1)c1ccncc1 [PFK-158] | 3.72 | -89
22 | COc1ccc([S+](=O)([O-])Nc2cc(-c3c(O)ccc4ccccc34)c(O)c3ccccc23)cc1 [C-188-9] | 26.3 | -95.1
23 | CCc1ccc(OCc2ccccc2C(=O)Nc2ccc3nc(C)cc(N)c3c2)cc1 [JTC-801] | 3.32 | -94.1
24 | CCOc1cc(C(=O)N2CCC(N3CCN(C)CC3)CC2)ccc1Nc1ncc2c(n1)N(C1CCCC1)c1ccccc1C(=O)N2C [XMD17-109] | 7.42 | -104
25 | C[C@H]([C@H]1C\C(=C(CO)/C(=O)O1)C)[C@H]2CC[C@H]3[C@@H]4C[C@H]5O[C@]56[C@@H](O)\C=C/C(=O)[C@]6(C)[C@H]4CC[C@]23C [Withaferin A] | 1.66 | -102
26 | Nc1nc(-c2nn(Cc3ccccc3F)c3ncccc23)ncc1C1CC1 [BAY-41-2272] | 1.05 | -51.2
27 | ClC1=CC=C2OC3=C(\N=C(NC3=O)\[C@@H]4CCCN4)C2=C1 [XL 413 hydrochloride] | 14.8 | -47.6
28 | CO[C@H]1C[C@@H]2CC[C@@H](C)[C@@](O)(O2)C(=O)C(=O)N2CCCC[C@H]2C(=O)O[C@H]([C@H](C)C[C@@H]2CC[C@@H](OP(C)(C)=O)[C@H](OC)C2)CC(=O)[C@H](C)/C=C(\C)[C@@H](O)[C@@H](OC)C(=O)[C@H](C)C[C@H](C)/C=C/C=C/C=C/1C [Ridaforolimus] | 20.9 | -48.8
29 | Nc1nc(F)nc2c1ncn2[C@@H]1O[C@H](CO)[C@@H](O)[C@@H]1O [2-Fluoroadenosine] | 9.34 | -57.1
30 | CC(=O)N1c2ccc(-c3ccc(C(=O)O)cc3)cc2[C@H](Nc2ccc(Cl)cc2)C[C@@H]1C | 0.833 | -90.5
31 | CC[C@@]1(O)C(=O)OC/C2=C1/C=C3\N(CC4=C5[C@@H](N)CCC6=C5C(=CC(=C6C)F)N=C34)C2=O [Exatecan] | 0.0417 | -64
32 | C=CC(=O)Nc1cccc(Sc2nc(Nc3ccc(N4CCN(C)CC4)cc3)ncc2Cl)c1 [WZ-8040] | 7.42 | -108
33 | C/C(NNC(=O)c1cccc([S+](=O)([O-])N2CCOCC2)c1)=C1\C=C(Cl)C=CC1=O [SP-2509] | 2.63 | -72
34 | CC1(C)CC\C2=C(/O1)C3=C(C=CC=C3)C(=O)C2=O [beta-Lapachone] | 14.8 | -103
35 | Cc1ccc(-n2nc(C(C)(C)C)cc2N/C(O)=N/Cc2cc(F)ccc2Oc2ccc3c(cnn3CCO)c2)cc1 [Pexmetinib] | 10.5 | -98.4
36 | COc1cc2c(cc1O)CCN[C@]21CS[C@@H]2c3c(OC(C)=O)c(C)c4c(c3[C@H](COC1=O)N1[C@@H]2[C@H]2c3c(cc(C)c(OC)c3O)C[C@@H]([C@@H]1O)N2C)OCO4 [Trabectedin] | 0.0121 | -69.8
37 | CC(C)(C)C1=CC(=C(NC(=O)C/2=C/NC3=C(C=CC=C3)C2=O)C=C1O)C(C)(C)C [Ivacaftor] | 18.6 | -108
38 | COc1ccc(/C=C\c2cc(OC)c(OC)c(OC)c2)cc1NC(=O)[C@H](N)CO [Ombrabulin] | 0.148 | -62.9

Row | SMILES | AC50 cell viability (HCT116 [1]) [µM] | efficacy (HCT116 [2]) [%]
39 | Cc1cc2c(C(C)C)c(O)c(O)c(C=O)c2c(O)c1-c1c(C)cc2c(C(C)C)c(O)c(O)c(C=O)c2c1O [(-)-Gossypol] | 16.6 | -115
40 | C[S+](=O)([O-])N1CCN(Cc2cc3nc(-c4cccc5[nH]ncc45)nc(N4CCOCC4)c3s2)CC1 [Pictilisib] | 3.32 | -78.3
41 | COC1=C(OC)C=C2C(=C1)C(=O)N(CCCN3CCOCC3)\C4=C2\C(=O)C5=C4C=C6OCOC6=C5 [Indotecan hydrochloride (LMP-400)] | 2.09 | -88.1
42 | Cc1ccc(-c2ncn(-c3ccc(Nc4nccc(-c5cccc(N6CCOCC6)c5)n4)cc3)n2)cn1 [SR-3306] | 1.48 | -85.8
43 | Oc1ccc(OCc2ccccc2)cc1 [Monobenzone] | 18.6 | -47.7
44 | OC[C@H]1O[C@H](C[C@@H]1O)N2\C=C(F)/C(=O)NC2=O [Floxuridine] | 0.235 | -82.9
45 | CN1CCc2c(n(Cc3ccc(C(=O)NO)cc3)c3ccccc23)C1 [Compound 7] | 26.3 | -98.9
46 | CNC(=O)c1nn(C)c2c1C(C)(C)Cc1cnc(Nc3ccc(N4CCN(C)CC4)cc3)nc1-2 [Milciclib] | 0.525 | -63.4
47 | CN(C(=O)CNC(=O)/C=C/c1cccc(Cl)c1)C1CC[S+](=O)([O-])CC1 (centres undefined) [ML264] | 0.742 | -92.4
48 | CNC(=O)CCc1cc(-c2ccc(-c3ccc(C(F)(F)F)cc3)cc2)n(-c2ccc(N3CCNCC3)cc2)n1 [OSU-T315] | 6.61 | -90.4
49 | C[C@H]1[C@H](O)O[C@@H]2O[C@@]3(C)CC[C@H]4[C@H](C)CC[C@@H]1[C@@]24OO3 [Artenimol] | 2.63 | -78.7
50 | N#C/C(=C(/N)Sc1ccc(N)cc1)c1ccccc1C(F)(F)F [SL-327] | 13.2 | -80.4
51 | COc1cc(F)c(F)c(Nc2ccc(I)cc2F)c1N[S+](=O)([O-])C1(C[C@H](O)CO)CC1 [Refametinib] | 2.63 | -84.3
52 | OC1CCC(Nc2ncc3nc(Nc4c(F)cc(F)cc4F)n([C@@H]4CCOC4)c3n2)CC1 (some centres undefined) | 18.6 | -43.3
53 | C[C@H]1Oc2cc(cnc2N)-c2c(nn(C)c2C#N)CN(C)C(=O)c2ccc(F)cc21 [Lorlatinib] | 0.372 | -33.7
54 | O=C(/C=C/c1cccc([S+](=O)([O-])Nc2ccccc2)c1)NO [Belinostat] | 0.525 | -87.7
55 | CCn1c(-c2nonc2N)nc2cncc(CNC3CCNCC3)c21 | 10.5 | -43.9
56 | C=CCNc1c(O)cc2c(O)c1C[C@@H](C)C[C@H](OC)[C@H](O)[C@@H](C)/C=C(/C)[C@H](OC(N)=O)[C@@H](OC)/C=C\C=C(\C)C(=O)N2 [Retaspimycin Hydrochloride] | 0.372 | -66.4
57 | Fc1ccc(-c2csc3ncnc(NCc4ccc5c(c4)OCO5)c23)cc1 | 8.33 | -57.3
